A short description of series [1]: Example 2: blood test of LDL, HDL and cholesterol levels, periodic treatment with atorvastatin, person. It counts as in vivo, human. Conditions: for HDL level / LDL level / cholesterol level: one week on / two months off. The procedure: A person visits their physician and during the visit undergoes a blood test. The person is found to have an LDL level of 92 mg/dl, HDL level of 41 mg/dl and a cholesterol level of 212 mg/dl. […] To remind the person to take atorvastatin after the monthly breaks, they download an application to their smart phone and inputs the first day they are to take atorvastatin and the application automatically determines the day a month after stopping taking atorvastatin that they are to start taking the atorvastatin again. A month after taking the first weeks dose of atorvastatin, the person receives a reminder from the application on their smart phone to take the second dose of atorvastatin. This repeats on a monthly basis. The person returns to the physician for a follow on blood test six months later and they are found to have LDL level of 120 mg/dl, HDL level of 45 mg/dl and a cholesterol level of 161 mg/dl. At this point the physician changes the frequency of the breaks between week of dosing to every two months, while maintaining the dose of 20 mg. The person inputs the new schedule into the application on their smart phone and they are reminded to take atorvastatin every two month by the application. Six months later, the person returns to the physician for a blood test. […] The physician recommends that the person continue to take atorvastatin for a week followed by a two month break, which the person does. A year later the person returns to the physician for a blood test. […] The person continues taking the atorvastatin for a week every two months for the rest of their life, with their LDL levels ranging from 115-120, HDL levels ranging from 45-51 and their cholesterol levels ranging from 151-162.

Series [2] can be described thus: Example 3: blood test of LDL, HDL and cholesterol levels, periodic treatment with fluvastatin, person. The series is classed as in vivo, human. The procedure: A person visits their physician and during the visit undergoes a blood test. The person is found to have an LDL level of 87 mg/dl, HDL level of 41 mg/dl and a cholesterol level of 266 mg/dl. […] To remind the person to take fluvastatin following the two month breaks, the physician inputs the days that the person is to take fluvastatin and arranges for the person to receive text messages through Skype that the person will receive on their cell phone and their personal computer. Two months after taking the first weeks dose of atorvastatin, the person receives a reminder by text to take the second weeks dose of atorvastatin two months later. This repeats every two months. The person returns to the physician for a follow on blood test six months later and they are found to have LDL level of 112 mg/dl, HDL level of 47 mg/dl and a cholesterol level of 188 mg/dl. At this point the physician changes the frequency of dosing to one week taking fluvastatin followed by a break of three months at a dose of 40 mg, with this schedule repeating thereafter. The physician inputs the new schedule so that the person receives text messages every three months to restart taking fluvastatin. A year later, the person returns to the physician for a blood test. […] The physician recommends that the person continue to take fluvastatin for a week followed by a three month break and repeating this schedule thereafter, which the person does. A year later the person returns to the physician for a blood test. […] The person continues taking the atorvastatin for a week followed by a three month break and repeating this schedule for the rest of their life, with their LDL levels ranging from 115-120, HDL levels ranging from 45-51 and their cholesterol levels ranging from 151-162.

Series [3] in a line: Example 5: blood test of LDL, HDL and cholesterol levels, periodic treatment with gemfibrozil, person. The series is classed as in vivo, human. The procedure: A person visits their physician and during the visit undergoes a blood test. The person is found to have an LDL level of 74 mg/dl, HDL level of 32 mg/dl and a cholesterol level of 311 mg/dl. The physician prescribes gemfibrozil at an initial dose of 600 mg taken orally for one week followed by a one month break, followed by a week of taking gemfibrozil followed by a month break, which schedule is repeated thereafter. To remind the person to take gemfibrozil after the monthly break, the physician inputs the days that the person is to take gemfibrozil and arranges for the person to receive text messages through their cell phone and a telephone call to remind them to take gemfibrozil. One month after taking the first weeks dose of gemfibrozil, the person receives a reminder by text to take the second weeks dose of gemfibrozil. This repeats on a monthly basis. The person returns to the physician for a follow on blood test six months later and they are found to have LDL level of 101 mg/dl, HDL level of 41 mg/dl and a cholesterol level of 211 mg/dl. The physician recommends that the person continue to take gemfibrozil for a week followed by a month break, which the person does on a repeated basis. A year later the person returns to the physician for a blood test.

Series [4] can be described thus: Example 4: blood test of LDL, HDL and cholesterol levels, periodic treatment with lovastatin, person. The series is classed as in vivo, human. The method, then:
A person visits their physician and during the visit undergoes a blood test. The person is found to have an LDL level of 91 mg/dl, HDL level of 40 mg/dl and a cholesterol level of 222 mg/dl. […] To remind the person to take lovastatin after each four month break, the physician inputs the days that the person is to take lovastatin and arranges for the person to receive a letter by postal mail to remind them to take the lovastatin. Four months after taking the first weeks dose of lovastatin, the person receives a reminder by postal mail to take the second weeks dose. This repeats on an every four month basis. The person returns to the physician for a follow on blood test one year later and they are found to have LDL level of 109 mg/dl, HDL level of 45 mg/dl and a cholesterol level of 184 mg/dl. The person continues taking the atorvastatin for a week followed by a break of four months, which they repeat for the rest of their life, with their LDL levels ranging from 115-120, HDL levels ranging from 45-51 and their cholesterol levels ranging from 151-162.

Series [5] can be described thus: Example 2: blood test of LDL, HDL and cholesterol levels, periodic treatment with atorvastatin, person. The series is classed as in vivo, human. Conditions: 40 mg orally, one week on / a month off, after six months.
The conditions of series [6]: meta-analysis of clinical trials; cited from earlier work.
The mark [7] stands for this setting: a week every two months, for the rest of their life, in mg/dL.
[8] abbreviates: dose of 20 mg, after six months.
The mark [9] stands for this setting: once monthly administration (so in the source).
[10] abbreviates: one week on / three month break, for the rest of their life, in mg/dL.
Where [11] appears, read: one week on / four months off, for the rest of their life, in mg/dL.
The mark [12] stands for this setting: 600 mg orally, one week on / one month off, after six months.
Where [13] appears, read: one week on / one month off, a year later.
Setting [14] is: one week on / one month off, for the rest of their life, in mg/dL.
Setting [15] is: 40 mg, one week on / four months off, one year later.

In the case of `CC(C)c1c(C(=O)Nc2ccccc2)c(-c2ccccc2)c(-c2ccc(F)cc2)n1CC[C@@H](O)C[C@@H](O)CC(=O)O` [atorvastatin], the HDL levels ranging in series [1] (setting [7]), in series [2] (setting [10]) and in series [4] (setting [11]) was 45-51 in each case. Besides, the LDL levels ranging in series [1] (setting [7]), in series [2] (setting [10]) and in series [4] (setting [11]) was 115-120 each time. The cholesterol levels ranging in series [1] (setting [7]), in series [2] (setting [10]) and in series [4] (setting [11]) was 151-162 in each case. In addition, the HDL level was determined as 48 mg/dL in series [1] (setting [8]), 48 mg/dL in series [1] (a year later) and 45 mg/dL in series [5]. Moreover, the LDL level in series [1] (setting [8]) was found to be 120 mg/dL; in series [1] (a year later), 118 mg/dL; in series [5], 120 mg/dL. For the same compound, the results for the cholesterol level in series [1] (setting [8]), in series [1] (a year later) and in series [5] were 160 mg/dL, 161 mg/dL and 161 mg/dL, respectively. Besides, the “maintaining normal levels of LDL, HDL and cholesterol” value in series [1] (setting [9]) is “successful at maintaining normal levels of LDL, HDL and cholesterol”; in series [2] (setting [9]), “successful at maintaining normal levels of LDL, HDL and cholesterol”; in series [3] (once monthly administration) it was “successful at maintaining normal levels of LDL, HDL and cholesterol”.

In series [3] (setting [12]), `Cc1ccc(C)c(OCCCC(C)(C)C(=O)O)c1` [gemfibrozil] showed an HDL level of 41 mg/dL, an LDL level of 101 mg/dL and a cholesterol level of 211 mg/dL. In series [3] (setting [13]), this compound had an HDL level of 44 mg/dL, an LDL level of 106 mg/dL and a cholesterol level of 191 mg/dL. Also, in series [3] (setting [14]), the HDL levels ranging is 45-51, the LDL levels ranging is given as 115-120 and the cholesterol levels ranging was 151-162.

As to `COCc1c(C(C)C)nc(C(C)C)c(/C=C/[C@@H](O)C[C@@H](O)CC(=O)O)c1-c1ccc(F)cc1` [cerivastatin], the rhabdomyolysis result in series [6] is reported as “rhabdomyolysis did not occur”.

Turning to `CC[C@H](C)C(=O)O[C@H]1C[C@@H](C)C=C2C=C[C@H](C)[C@H](CC[C@@H]3C[C@@H](O)CC(=O)O3)[C@H]21` [lovastatin], in series [4] (setting [15]), the HDL level is 45 mg/dL, the LDL level is 109 mg/dL and the cholesterol level came out at 184 mg/dL. Moreover, the “maintaining normal levels of LDL, HDL and cholesterol” value in series [4] (once every four month administration) was “successful at maintaining normal levels of LDL, HDL and cholesterol”.

The record behind these values is patent publication US9849110B2, “Intermittent fibrate administration method” (Biocopea Limited, priority 2012, dated 2017).
